One test relates to Spätphaseneosinophile. Nature of the test: inhibition of late-phase eosinophils in guinea pigs (Cartwright; eosinophil counting). The class given is in vivo, Meerschweinchen. To be noted: 30 mg pro Kilogramm Körpergewicht, p.o. As for the experimental part: (§1) Die Verbindung gemäß Beispiel 16 zeigt im Versuch der Hemmung der Spätphaseneosinophile in Meerschweinchen gemäß der Vorschrift von Cartwright, Diagnostic Laboratory Hematology, 1968, S. 48 und Mac Fortare et al, Eosinophil Counting, Brit. Med. 9., 2, 1187 (1951) in der Dosis von 30 mg pro Kilogramm Körpergewicht, gegeben p.o., einen Hemmwert von 80 %. Bei der Hemmung der LTD-4-Rezeptor-Bindung gemäß Borbe und Zierenberg, Pharmacopsychiatry 18, 314 319 (1985) ergab sich eine Hemmung von 50 % der Aktivität bei einer Konzentration von 7,4 µmol/l.

Another test has as its target T1, LTD-4-Rezeptor (Homo sapiens, UniProt Q9Y271).
T1 sequence (Q9Y271 1-337): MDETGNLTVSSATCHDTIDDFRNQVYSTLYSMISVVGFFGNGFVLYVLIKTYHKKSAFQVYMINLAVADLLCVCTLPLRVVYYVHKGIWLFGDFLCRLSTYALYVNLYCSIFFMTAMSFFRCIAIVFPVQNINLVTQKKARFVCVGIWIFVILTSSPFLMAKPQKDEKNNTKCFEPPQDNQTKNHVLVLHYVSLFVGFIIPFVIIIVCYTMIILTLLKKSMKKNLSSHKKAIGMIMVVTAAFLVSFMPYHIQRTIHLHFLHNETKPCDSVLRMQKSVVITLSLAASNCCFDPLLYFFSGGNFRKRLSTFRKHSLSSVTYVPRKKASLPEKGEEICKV
Nature of the test: inhibition of LTD-4 receptor binding (Borbe and Zierenberg). The conditions noted are these: read-out: Hemmung von 50 % der Aktivität bei einer Konzentration von. The method, then:
as §1

Test [1] deals with Histamin-Freisetzung aus Mastzellen. Nature of the test: allergically induced histamine release (sensitised rats, method of Shore et al.). Format: cell-based, Ratten. To be noted: Mast cell, concentration 10 µmol/l, read-out: Hemmung der Freisetzung. An excerpt:
Die pharmakologische Testung auf Wirksamkeit bei der allergisch induzierten Histaminfreisetzung an sensibilisierten Ratten erfolgte gemäß der Versuchsvorschrift von P.A. Shore et al., I. Pharmacol. Exp. Ther., 127 (1959), S. 182.
Die Verbindung gemäß gemaß Beispiel 1 zeigt folgende Werte: Bei der allergisch induzierten Histamin-Freisetzung ergibt ein Konzentration 10 µmol/l eine 25 % - Hemmung der Freisetzung.

SMILES strings stand for the structures.

Consider 2 compounds from patent publication EP0599152A1, “Triazinones and Triazinophthalazinones possessing antiasthmatic/antiallergic, positive inotropic and antihypertensive activities” (ASTA Medica Aktiengesellschaft, priority 1992, dated 1994).

The compound `CN1CC(=O)NN=C1c1ccc(OCc2ccc3ccccc3n2)c(Cl)c1` [Beispiel 16, 3-{3-Chlor-4-[(2-chinolyl)methoxy]phenyl}-4-methyl-4,5-dihydro-1,2,4-triazin-6-on] gave a Hemmwert in the test with Spätphaseneosinophile of 80%. Besides, at LTD-4-Rezeptor, the IC50 stood at 7.4 µM.

Regarding `O=C1CN2N=C(c3ccccc3)c3ccccc3C2=NN1` [Beispiel 1, 7-Phenyl-2H-triazino(3,4a)phthalazin-3(4H)-on], the inhibition at 10 µM in test [1] is 25%.
